Experimental data taken from ChEMBL document CHEMBL1201862, “PubChem BioAssay data set” (2004).
Activity calls are given as the source filed them.

Target: T1, Ubiquitin-conjugating enzyme E2 N (Homo sapiens, UniProt P61088);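 also: Dose-response confirmation in a TR-FRET assay detecting UBC13-driven polyubiquitin chain formation, inhibition measured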
T1 sequence (P61088 whole entry): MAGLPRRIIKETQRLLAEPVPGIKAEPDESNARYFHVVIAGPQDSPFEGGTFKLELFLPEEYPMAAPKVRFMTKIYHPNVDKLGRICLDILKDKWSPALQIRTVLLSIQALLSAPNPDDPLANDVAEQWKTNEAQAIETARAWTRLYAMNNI
Experiment: not given
Type: functional
Settings: not given
For `O=C(CCC(=O)N1CCOc2ccc(Cl)cc21)NCCCN1CCN(c2ccccc2F)CC1`, the IC50 was > 20 µM (inactive).
For `COC(=O)C1=C(C)N(Cc2ccccc2)C(NCCc2c[nH]c3ccccc23)=N[C@H]1c1cccc(F)c1`, the IC50 was > 20 µM (inactive).
With `CCOc1cccc2sc(N(CCCN(C)C)C(=O)c3ccc(S(=O)(=O)N(CC)Cc4ccccc4)cc3)nc12` the IC50 was > 20 µM (inactive).
For `Cc1ccc(O)c(CNCCNCc2cc(C)ccc2O)c1`, the IC50 was > 20 µM (inactive).
For `CCC(C)(C)NC(=O)CN(C(=O)c1snc(C(N)=O)c1N)c1ccc2nc(C)sc2c1`, the IC50 was > 20 µM (inactive).
In the case of `CCSc1nc(N2CCCCC2)c2c(c1C#N)CCCC2`, the IC50 is reported as > 20 µM (inactive).
In the case of `Cn1c(C(=O)NCCCN2CCN(c3cccc(Cl)c3)CC2)cc2c(=O)n(C)c3ccccc3c21`, the IC50 is reported as > 20 µM (inactive).
In the case of `NCCCC[C@@H]1NC(=O)c2cc([N+](=O)[O-])cc(I)c2SC[C@@H](C(N)=O)NC(=O)[C@H](Cc2ccc(O)cc2)NC1=O`, the IC50 is reported as > 20 µM (inactive).
For `O=C(CSC1=NS(=O)(=O)c2ccccc21)Nc1ccccc1`, the IC50 was > 20 µM (inactive).
With `CCCCCCCCC(=O)N1CCN(c2cc3c(cc2F)c(=O)c(C(=O)O)cn3CC)CC1` the IC50 was > 20 µM (inactive).

System: not listed separately
Experiment: cytotoxicity toward NIH3T3 fibroblasts, dose response, counter-screen, cell-based, ATP luminescence, mouse fibroblasts (AID 2010);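 also: cells exposed to compound for about 90 hours before reading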
Type: functional
Settings: not given
In the case of `O=C(COc1ccc(F)cc1Cl)Nc1nc(-c2ccccn2)cs1`, the EC50 is reported as 3.74 µM (active).
For `COc1ccc(CCNCc2cc(C)n(-c3ccc(OC)cc3)c2C)cc1`, the EC50 was > 60 µM (not active).

System: not listed separately
Experiment: Shn3 3'UTR reporter inhibitors, dose response, cell-based, Clone20 osteoblasts, firefly luciferase, cherry-picked (AID 624132);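 also: firefly luciferase luminescence from reporter carrying the Shn3 3'UTR in osteoblasts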
Type: functional
Settings: not given
With `COC(=O)Oc1ccc(/C=C/C(=O)OC(C)C)cc1OC(=O)OC` the AC50 was 3.29 µM (active).
For `CN(C)S(=O)(=O)c1ccc(Oc2ccc(S(=O)(=O)N(C)C)cc2)cc1`, the AC50 was 3.04 µM (active).
With `Cc1ccc(S(=O)(=O)N2[C@H](c3cccc(Cl)c3)CC(=O)[C@@H]3CN(S(=O)(=O)c4ccccc4C)[C@H](c4ccc(Cl)cc4)C[C@@H]32)cc1` the AC50 was 0.289 µM (active).
With `Cc1ccc(C(=O)Nc2nc(-c3ccccn3)cs2)cc1S(=O)(=O)N1CCOCC1` the AC50 was 0.838 µM (active).
In the case of `Cn1c(SCc2cccc(Br)c2)nc2ccccc2c1=O`, the AC50 is reported as 7.68 µM (active).

System: not listed separately
Experiment: HepG2 cell cytotoxicity, dose response, cytotoxicity control for Shn3 inhibitor project, CellTiter-Glo, cherry-picked (AID 624134)
Type: functional, cell-based
Settings: not given
For `CN(C)S(=O)(=O)c1ccc(Oc2ccc(S(=O)(=O)N(C)C)cc2)cc1`, the AC50 was 53.5 µM (active).
For `Cc1ccc(S(=O)(=O)N2[C@H](c3cccc(Cl)c3)CC(=O)[C@@H]3CN(S(=O)(=O)c4ccccc4C)[C@H](c4ccc(Cl)cc4)C[C@@H]32)cc1`, the AC50 was 5.61 µM (active).
In the case of `Cc1ccc(C(=O)Nc2nc(-c3ccccn3)cs2)cc1S(=O)(=O)N1CCOCC1`, the AC50 is reported as > 70 µM (inactive).
For `Cn1c(SCc2cccc(Br)c2)nc2ccccc2c1=O`, the AC50 was 59.8 µM (active).

Target: T2, Heat shock factor protein 1 (Mus musculus, UniProt P38532)
T2 sequence (P38532 whole entry): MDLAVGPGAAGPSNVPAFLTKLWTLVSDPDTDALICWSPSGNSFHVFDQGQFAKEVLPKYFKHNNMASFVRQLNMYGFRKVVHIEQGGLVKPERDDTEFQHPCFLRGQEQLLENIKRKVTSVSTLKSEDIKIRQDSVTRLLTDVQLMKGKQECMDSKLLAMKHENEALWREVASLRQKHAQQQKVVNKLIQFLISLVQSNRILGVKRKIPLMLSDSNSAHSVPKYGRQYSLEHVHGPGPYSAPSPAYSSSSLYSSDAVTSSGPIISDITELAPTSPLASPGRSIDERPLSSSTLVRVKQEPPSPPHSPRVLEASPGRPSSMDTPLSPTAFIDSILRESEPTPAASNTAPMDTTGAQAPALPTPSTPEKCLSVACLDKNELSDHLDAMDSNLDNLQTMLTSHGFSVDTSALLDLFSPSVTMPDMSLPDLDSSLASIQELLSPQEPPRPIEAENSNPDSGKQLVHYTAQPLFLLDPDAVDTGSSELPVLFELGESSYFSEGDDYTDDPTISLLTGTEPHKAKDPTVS
Experiment: inhibition of MG132-induced HSE-luciferase signal, confirmation, cell-based, NIH3T3, luminescence, dose retest (AID 2382);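 also: NIH3T3 fibroblasts with HSF1-driven luciferase reporter stressed by proteasome inhibitor MG132; luminescence from HSF1-driven luciferase expression after 8 hours of MG132 stress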
Type: functional
Settings: not given
For `O=C(COc1ccc(F)cc1Cl)Nc1nc(-c2ccccn2)cs1`, the EC50 was 41.4 µM (active).

Target: T3, Polyadenylate-binding protein 1 (Homo sapiens, UniProt P11940)
T3 sequence (P11940 whole entry): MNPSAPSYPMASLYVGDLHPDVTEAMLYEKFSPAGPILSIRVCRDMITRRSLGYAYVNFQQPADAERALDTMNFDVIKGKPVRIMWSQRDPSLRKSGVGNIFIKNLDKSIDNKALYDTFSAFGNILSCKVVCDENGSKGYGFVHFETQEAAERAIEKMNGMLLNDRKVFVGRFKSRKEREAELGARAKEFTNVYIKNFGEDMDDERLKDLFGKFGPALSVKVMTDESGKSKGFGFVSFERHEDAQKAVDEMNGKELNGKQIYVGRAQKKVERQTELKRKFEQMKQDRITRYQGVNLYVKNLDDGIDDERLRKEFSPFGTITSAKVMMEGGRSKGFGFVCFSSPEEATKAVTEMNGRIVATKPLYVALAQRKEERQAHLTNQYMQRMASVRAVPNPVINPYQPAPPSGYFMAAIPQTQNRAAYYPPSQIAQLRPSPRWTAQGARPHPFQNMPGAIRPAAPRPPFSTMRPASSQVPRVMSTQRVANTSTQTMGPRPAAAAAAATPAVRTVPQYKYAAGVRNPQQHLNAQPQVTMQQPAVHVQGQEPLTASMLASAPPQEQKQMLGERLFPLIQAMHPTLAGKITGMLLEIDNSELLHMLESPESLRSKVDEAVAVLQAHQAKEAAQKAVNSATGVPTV
Experiment: PABP1 MLLE–PAM2 binding inhibitor potency, dose response, biochemical, fluorescence polarization, FITC-PAM2 peptide (AID 602259)
Type: functional
Settings: read-out: IC50_Mean
In the case of `O=C(CSc1ccc(-c2ccncc2)nn1)c1ccccc1`, the IC50 is reported as > 66 µM (inactive).
In the case of `NC(=O)c1ccsc1NC(=O)CSc1nc2ccccc2c(=O)n1CCCO`, the IC50 is reported as > 66 µM (inactive).
For `COc1cc(NC(S)=Nc2ccc(OC(F)F)cc2)cc(OC)c1`, the IC50 was > 66 µM (inactive).

System: Streptococcus
Experiment: Group A Streptococcus viability loss, dose response, counter-screen for streptokinase expression inhibitor project, luminescence, BacTiterGlo (AID 1915);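 also: potency for reduction of bacterial viability or growth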
Type: functional, organism-based
Settings: not given
In the case of `O=C(COc1ccc(F)cc1Cl)Nc1nc(-c2ccccn2)cs1`, the EC50 is reported as 3.29 µM (active).

Target: Nonstructural protein 1 (Influenza A virus, UniProt Q194T2)
Sequence (Q194T2 whole entry): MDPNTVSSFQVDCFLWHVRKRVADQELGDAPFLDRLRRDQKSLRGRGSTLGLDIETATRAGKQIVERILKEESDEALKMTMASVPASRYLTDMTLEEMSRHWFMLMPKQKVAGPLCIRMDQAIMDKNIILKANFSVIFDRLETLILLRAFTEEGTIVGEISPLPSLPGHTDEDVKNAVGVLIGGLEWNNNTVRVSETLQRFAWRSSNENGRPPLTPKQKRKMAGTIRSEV
Experiment: not given
Type: functional, Influenza A virus (A/California/07/2009(H1N1))
Settings: not given
For `Cc1ccc(C(=O)Nc2nc(-c3ccccn3)cs2)cc1S(=O)(=O)N1CCOCC1`, the IC50 was 7.81 µM (active).
With `COc1ccc(CCNCc2cc(C)n(-c3ccc(OC)cc3)c2C)cc1` the IC50 was 44.7 µM (active).

Target: Large T antigen (Simian virus 40, UniProt P03070);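 also: Confirmatory-stage PubChem screen for compounds that inhibit SV40 T antigen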
Sequence (P03070 whole entry): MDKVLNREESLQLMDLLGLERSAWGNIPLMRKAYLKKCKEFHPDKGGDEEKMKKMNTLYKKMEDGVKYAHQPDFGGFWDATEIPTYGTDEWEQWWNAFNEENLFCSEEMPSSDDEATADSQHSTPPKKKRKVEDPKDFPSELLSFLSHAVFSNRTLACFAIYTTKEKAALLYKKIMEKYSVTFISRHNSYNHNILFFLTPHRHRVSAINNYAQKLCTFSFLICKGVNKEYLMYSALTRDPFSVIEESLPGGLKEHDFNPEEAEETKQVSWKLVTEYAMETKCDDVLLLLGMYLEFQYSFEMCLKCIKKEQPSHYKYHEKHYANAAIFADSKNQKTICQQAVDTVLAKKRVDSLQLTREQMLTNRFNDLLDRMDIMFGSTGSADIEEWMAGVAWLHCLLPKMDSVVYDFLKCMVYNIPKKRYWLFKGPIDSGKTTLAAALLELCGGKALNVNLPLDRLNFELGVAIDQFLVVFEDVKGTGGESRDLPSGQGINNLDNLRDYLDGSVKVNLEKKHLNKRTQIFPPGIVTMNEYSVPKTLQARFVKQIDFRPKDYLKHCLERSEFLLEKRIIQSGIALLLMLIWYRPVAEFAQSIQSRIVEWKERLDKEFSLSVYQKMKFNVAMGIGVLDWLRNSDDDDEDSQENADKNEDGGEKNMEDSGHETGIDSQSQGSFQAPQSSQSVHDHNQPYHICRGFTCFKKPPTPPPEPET
Experiment: not given
Type: functional, Betapolyomavirus macacae
Settings: not given
With `O=C(CSC1=NS(=O)(=O)c2ccccc21)Nc1ccccc1` the IC50 was 12.2 µM (active).

System: H9c2;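 also: confirmatory concentration-response retest of ultra-high-throughput screening hits for modulation of myocardial damage; cell death induced by hydrogen peroxide oxidative stress; compound pretreatment for 60 min then peroxide exposure for 2 h; potency is for protecting the cells against peroxide damage rather than for killing them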
Experiment: cells
Type: functional, cell-based
Settings: Rattus norvegicus, H9c2, Myocardium
For `COC(=O)Oc1ccc(/C=C/C(=O)OC(C)C)cc1OC(=O)OC`, the IC50 was > 79 µM (inactive).
With `O=C(COc1ccc(F)cc1Cl)Nc1nc(-c2ccccn2)cs1` the IC50 was > 79 µM (inactive).

System: INS1
Experiment: beta cell apoptosis inhibitors, cytokine rescue, dose response, luminescence, retest (AID 449756);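 also: cell death triggered by IL-1 beta plus TNF-alpha plus IFN-gamma mixture; protective hits raise ATP signal compared with cytokine alone wells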
Type: functional, cell-based
Settings: Rattus norvegicus
In the case of `CN(C)S(=O)(=O)c1ccc(Oc2ccc(S(=O)(=O)N(C)C)cc2)cc1`, the AC50 is reported as 6.33 µM (active).
In the case of `Cc1ccc(C(=O)Nc2nc(-c3ccccn3)cs2)cc1S(=O)(=O)N1CCOCC1`, the AC50 is reported as 1.36 µM (active).

System: not listed separately
Experiment: HEp-2 cell cytotoxicity, dose response, cytotoxicity control for RSV inhibitor project, HTS (AID 2410)
Type: functional
Settings: human respiratory syncytial virus
For `CCOc1cccc2sc(N(CCCN(C)C)C(=O)c3ccc(S(=O)(=O)N(CC)Cc4ccccc4)cc3)nc12`, the CC50 was 27.7 µM (active).

System: not listed separately
Experiment: Luminescence Cell-Based Dose Retest to Confirm Inhibitors of Cancer Stem Cells. [Related pubchem assays (depositor defined):AID2717, AID2721]
Type: functional
Settings: Homo sapiens
In the case of `COC(=O)C1=C(C)N(Cc2ccccc2)C(NCCc2c[nH]c3ccccc23)=N[C@H]1c1cccc(F)c1`, the AC50 is reported as 6.45 µM (active).

Target: T3, Polyadenylate-binding protein 1
Experiment: PABP1 MLLE–PAM2 interaction inhibitors, dose response, miRNA deadenylation inhibitor project, biochemical, fluorescence polarization, Cy5-PAM2 peptide, secondary (AID 602260)
Type: functional
Settings: read-out: IC50_Mean
In the case of `O=C(CSc1ccc(-c2ccncc2)nn1)c1ccccc1`, the IC50 is reported as > 66 µM (inactive).
For `NC(=O)c1ccsc1NC(=O)CSc1nc2ccccc2c(=O)n1CCCO`, the IC50 was > 66 µM (inactive).
For `COc1cc(NC(S)=Nc2ccc(OC(F)F)cc2)cc(OC)c1`, the IC50 was > 66 µM (inactive).

System: Streptococcus sp. 'group A'
Experiment: growth inhibition of control SK(-) GAS strain, dose response, counter-screen for streptokinase expression inhibitor project, luminescence, kanamycin, BacTiterGlo, confirmation (AID 1900)
Type: functional, organism-based
Settings: not given
With `O=C(COc1ccc(F)cc1Cl)Nc1nc(-c2ccccn2)cs1` the EC50 was 0.751 µM (active).

System: not listed separately
Experiment: control 3'UTR Renilla luciferase suppression, dose response, counter-screen for Shn3 inhibitor project, cell-based, Clone20-Shn3RL, cherry-picked (AID 624133)
Type: functional
Settings: not given
For `COC(=O)Oc1ccc(/C=C/C(=O)OC(C)C)cc1OC(=O)OC`, the AC50 was 2.56 µM (active).
For `CN(C)S(=O)(=O)c1ccc(Oc2ccc(S(=O)(=O)N(C)C)cc2)cc1`, the AC50 was 12.1 µM (active).
In the case of `Cc1ccc(S(=O)(=O)N2[C@H](c3cccc(Cl)c3)CC(=O)[C@@H]3CN(S(=O)(=O)c4ccccc4C)[C@H](c4ccc(Cl)cc4)C[C@@H]32)cc1`, the AC50 is reported as 0.62 µM (active).
With `Cc1ccc(C(=O)Nc2nc(-c3ccccn3)cs2)cc1S(=O)(=O)N1CCOCC1` the AC50 was 0.976 µM (active).
With `Cn1c(SCc2cccc(Br)c2)nc2ccccc2c1=O` the AC50 was 3.47 µM (active).

Target: T2, Heat shock factor protein 1
Experiment: HSF1 potentiators in luciferase reporter cells, confirmation, cell-based, NIH3T3, luminescence, dose retest (AID 435004);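 also: stress induced by proteasome inhibitor MG132 added 30 min after compound; luciferase reporter driven by HSF1 response element in NIH3T3 cells; actives raise luminescence as potentiators of the MG132 stress response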
Type: functional
Settings: not given
For `COc1ccc(CCNCc2cc(C)n(-c3ccc(OC)cc3)c2C)cc1`, the EC50 was > 260 µM (inactive).

System: not listed separately
Experiment: inhibitors of intracellular T. cruzi replication, confirmation, NIH3T3 host cells, beta-gal luminescence (AID 2044);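 also: intracellular parasites grown in NIH/3T3 mouse fibroblasts as host cells; luminescent beta-galactosidase reporter signal from transgenic T. cruzi replicating inside host cells; inhibitors lower the luminescence signal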
Type: functional, cell-based
Settings: not given
For `O=C(COc1ccc(F)cc1Cl)Nc1nc(-c2ccccn2)cs1`, the EC50 was 1.57 µM (active).
For `COc1ccc(CCNCc2cc(C)n(-c3ccc(OC)cc3)c2C)cc1`, the EC50 was 1.85 µM (active).
